Assay results published in patent US5236927A, “Anti-cancer quinazoline derivatives” (National Research Development Corporation, priority 1985, dated 1993).
Where two headings read alike, the source gives them in different places.

How the values were obtained:
L1210 tumour [1] = test: Treatment of L1210 tumour-bearing mice; format: in vivo, mouse
Procedure: (§1) The L1210 tumour is carried routinely in DBA2 mice at the Institute of Cancer Research (L1210/CBRI). For experiments 5×10^4 cells were implanted i.p. into male C57Bl×DBA2 F1 hybrid mice 3 days prior to treatment. […] The control group consisted of 9 mice and treated groups 6 or 7 mice.

L1210 cells [2] = test: Reversal of L1210 toxicity by co-incubation with thymidine; format: cell-based; settings: compound 50 uM + 10 uM thymidine
Procedure: Cells in the log phase of growth were diluted to about 5×10^4 /ml and duplicate 5ml aliquots were added to 50 ml tissue culture flasks containing the appropriate additions (diluted in RPMI and sterilised by Millipore filtration). Cell counts after 48 hours of incubation were obtained by Coulter counting.

[3] = cited from earlier work
[4] = Urinary and faecal elimination in the mouse; format: in vivo; settings: ip, 100 mg/kg i.p., 0-48 h
[5] = mouse; cited from earlier work
[6] = test system: de novo thymidylate synthesis in L1210 cells; test: Incorporation of 3H dUrd into acid-precipitable material in L1210 cells; format: cell-based; settings: Mus musculus, L1210, 10 min; 50 uM, by about 10 minutes
Procedure: L1210 cells were used at a concentration of 10^5 /ml. Incubation at 37° C. was in complete RPMI tissue culture medium plus or minus drugs for the lengths of time indicated on the graphs. After this time ^3 H dUrd was added at a concentration of 2 uCi/ml (about 0.2 uM). Three 1 ml aliquots were removed after 20 minutes, placed on ice and mixed with 1 ml of ice-cold phosphate buffered saline (PBS). Precipitation onto glass-fibre discs was performed by trichloroacetic acid washing followed by PBS. […] This is an indirect measurement of de novo thymidylate synthesis in whole cells. […] These concentrations are 10 times the ID50 values.

in vivo = settings: rat, iv, 100 mg/kg, Plasma levels
Procedure: (§2) During and after the infusion blood and bile samples were collected. Four hours after the experiment the rats were sacrificed and the urine collected from the bladder and the liver and kidneys removed.
(§3) Samples of plasma were also analysed for alanine transaminase.

[7] = Comparative pharmacokinetics in the mouse (plasma, liver, kidney levels); format: in vivo; settings: for concentration at 3 h / concentration at 6 h: mouse, plasma, ip, read-out: Plasma quinazoline conc.
Procedure: 3 Hours and 6 hours after administration groups of three mice at each dose level were sacrificed by exsanguination via cardiac puncture. Plasma was prepared and the livers and kidneys excised and weighed.

alanine transaminase = test: Comparative hepatotoxicity in the mouse (plasma alanine transaminase); format: in vivo
Procedure: […]. Plasma was prepared and the livers and kidneys excised and weighed.
Samples of plasma were also analysed for the enzyme alanine transaminase, an indicator of hepatotoxicity. […]

L1210/C15 cells = test: L1210/C15 cell culture growth inhibition (overproduces TS 45-fold); format: cell-based; settings: 48 hours; at 100 uM
Procedure: Cell counts after 48 hours of incubation were obtained by Coulter counting.

[8] = man, cited from earlier work
[9] = Toxicity and weight loss in treated L1210 tumour-bearing mice; format: in vivo, mouse; settings: 200 mg/kg, data not included
Procedure: as §1

L1210 cells [10] = settings: cited from earlier work
L1210 tumour [11] = settings: grown in vivo; cited from earlier work
[12] = rat, in vivo; for concentration: iv, 100 mg/kg
Procedure: as §2, §3

L1210 cells [13] = settings: grown in vitro; cited from earlier work
[14] = 100 mg/kg i.p., 3 h post-treatment
[15] = 100 mg/kg i.p., 6 h post-treatment
[16] = 300 mg/kg i.p., 3 h post-treatment
[17] = 300 mg/kg i.p., 6 h post-treatment

In the case of `C#CCN(Cc1ccc2nc(N)nc(O)c2c1)c1ccc(C(=O)N[C@@H](CCC(=O)O)C(=O)O)cc1` [CB3717, N-(4-(N-((2-amino-4-hydroxy-6-quinazolyl)methyl)prop-2-ynylamino)benzoyl)-L-glutamic acid, reference compound], the “"cures" (survived >100 days)” value (L1210 tumour [1]; 50 mg/kg i.p. daily ×5) is reported as “about 70%”, the “"cures"” value (L1210 tumour [1]; 100 mg/kg (the optimal dose), many previous experiments) is reported as 80-100% and the “Cell count at 48 hours as % control” value (L1210 cells [2]) is reported as 103 % control. The “solubility at acid pH” value [3] was “poor solubility”, the dose excreted at 48 h ([4]; faeces, read-out: Faecal excretion of the parent compound) was 26 ± 7% and the dose excreted at 48 h ([4]; urine, read-out: Urinary excretion of the parent compound) was 15 ± 3%. For the same compound, the “kidney toxicity: plasma urea” value [5] was “rise in plasma urea”, the “liver toxicity: alanine transaminase” value [5] was “transient rise in alanine transaminase” and the activity at 50 µM [6] was < 20%. It also gave a concentration at 0.5 h (in vivo) of 412 µM, a concentration at 1 h (in vivo) of 908 µM and a Kidney quinazoline level [7, 14] of 13 ± 2 % dose administered. The Liver quinazoline level [7, 14] was 32 ± 4 % dose administered, the Kidney quinazoline level [7, 15] was 20 ± 8 % dose administered and the Liver quinazoline level [7, 15] was 11 ± 2 % dose administered. It also gave a Kidney quinazoline level [7, 16] of 6 ± 1 % dose administered, a Liver quinazoline level [7, 16] of 22 ± 8 % dose administered and a Kidney quinazoline level [7, 17] of 16 ± 1 % dose administered. For the same compound, the Liver quinazoline level [7, 17] was 14 ± 6 % dose administered, the “detection in plasma, liver and kidneys” value ([7]; mice, 3 and 6 hours after i.p. dose, for CB3804 except plasma 3 h at 500 mg/kg) was “readily detected” and the concentration at 3 h [7, 14] was 134 ± 34 µM. It also gave a concentration at 6 h [7, 15] of 59 ± 38 µM, a concentration at 3 h [7, 16] of 214 ± 55 µM and a concentration at 6 h [7, 17] of 362 ± 32 µM. The “Plasma alanine transaminase level” value (alanine transaminase; [14]) was 225 ± 146 U/L, the “Plasma alanine transaminase level” value (alanine transaminase; [15]) was 273 ± 106 U/L and the “Plasma alanine transaminase level” value (alanine transaminase; [16]) was 86 ± 61 U/L. The “Plasma alanine transaminase level” value (alanine transaminase; [17]) was 973 ± 178 U/L, the “Levels of alanine transaminase (in words)” value (alanine transaminase; mice i.p., normal range 5-25U/l) was “markedly elevated” and the “L1210/C15 ID50” value (L1210/C15 cells) was “no inhibition”. The hepatic toxicity [8] was “apparently non-dose-related (although not life-threatening) hepatic toxicity”, the “liver toxicity: alanine transaminase” value [8] was “transient rise in alanine transaminase” and the “responses noted during Phase I/II clinical studies” value ([8]; particularly breast and ovary) was “Several minor and partial responses”. For the same compound, the weight loss [9] was “about 10%”, the mortality ([9]; mouse, in vivo, ip, read-out: death (of the animals)) was ~50% and the “effect of thymidine on cytotoxic effect” value (L1210 cells [10]) was “prevented in both cases by thymidine”. The “activity against L1210 cells in vivo” value (L1210 tumour [11]) was “active against L1210 cells”, the “clearance from the plasma (in words)” value [12] was “cleared less rapidly” and the concentration ([12]; 0.5 h) was 447 µM. For the same compound, the concentration ([12]; 1 h) was 878 µM and the “activity against L1210 cells in vitro” value (L1210 cells [13]) was “active against L1210 cells”.
